Results taken from PubChem BioAssay AID1963980 (Molecular Pharmacology Branch, DTP, NCI, 2024).

Test system: 475296-252-R-J1-PDC spheroid viability
Assay: Anticancer human tumor 475296-252-R-J1-PDC patient-derived rectal carcinoma cell line growth inhibition [PI3K]
Conditions: spheroids with HUVEC and MSC; for IC50: curve of first compound; for viability, T/C: stronger effect = lower value
Outline: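 Agents were dosed from a top concentration near clinical Cmax (otherwise 10 microM) in half-log decrements, alone or combined with PI3K inhibitors. The spheroids contain tumor cells plus endothelial (HUVEC) and MSC stroma; viability is measured.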
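Further: spheroids exposed to agents for seven days before readout.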

Compound Cn1cnc2c(F)c(Nc3ccc(Br)cc3Cl)c(C(=O)NOCCO)cc21 + CC(Nc1ncnc2nc[nH]c12)c1cc2cccc(Cl)c2c(=O)n1-c1ccccc1 has an IC50 (second compound 0.0316 µM) of over 3000 nM, an IC50 (second compound 0.1 µM) of over 3000 nM and an IC50 (second compound 0.316 µM) of over 3000 nM. The IC50 (second compound 1 µM) was 2910 nM, the IC50 (second compound 3.16 µM) was 2120 nM and the IC50 (second compound 10 µM) was 1210 nM. It also gave a viability, T/C (second compound 0.0316 µM, first compound 0.00949 µM) of 84.4%, a viability, T/C (second compound 0.0316 µM, first compound 0.03 µM) of 84.9% and a viability, T/C (second compound 0.0316 µM, first compound 0.0949 µM) of 81.6%. For the same compound, the viability, T/C (second compound 0.0316 µM, first compound 0.3 µM) was 70.5%, the viability, T/C (second compound 0.0316 µM, first compound 0.949 µM) was 63.1% and the viability, T/C (second compound 0.0316 µM, first compound 3 µM) was 53.9%. The viability, T/C (second compound 0.1 µM, first compound 0.00949 µM) was 95.8%, the viability, T/C (second compound 0.1 µM, first compound 0.03 µM) was 85.5% and the viability, T/C (second compound 0.1 µM, first compound 0.0949 µM) was 93.3%. The viability, T/C (second compound 0.1 µM, first compound 0.3 µM) was 73.5%, the viability, T/C (second compound 0.1 µM, first compound 0.949 µM) was 66.6% and the viability, T/C (second compound 0.1 µM, first compound 3 µM) was 55.7%. For the same compound, the viability, T/C (second compound 0.316 µM, first compound 0.00949 µM) was 90.7%, the viability, T/C (second compound 0.316 µM, first compound 0.03 µM) was 92.9% and the viability, T/C (second compound 0.316 µM, first compound 0.0949 µM) was 86.5%. It also gave a viability, T/C (second compound 0.316 µM, first compound 0.3 µM) of 74.8%, a viability, T/C (second compound 0.316 µM, first compound 0.949 µM) of 76.3% and a viability, T/C (second compound 0.316 µM, first compound 3 µM) of 51.5%. For the same compound, the viability, T/C (second compound 1 µM, first compound 0.00949 µM) was 95.7%, the viability, T/C (second compound 1 µM, first compound 0.03 µM) was 95.7% and the viability, T/C (second compound 1 µM, first compound 0.0949 µM) was 81.4%. For the same compound, the viability, T/C (second compound 1 µM, first compound 0.3 µM) was 68.2%, the viability, T/C (second compound 1 µM, first compound 0.949 µM) was 67.3% and the viability, T/C (second compound 1 µM, first compound 3 µM) was 48.1%. The viability, T/C (second compound 3.16 µM, first compound 0.00949 µM) was 94.2%, the viability, T/C (second compound 3.16 µM, first compound 0.03 µM) was 92.9% and the viability, T/C (second compound 3.16 µM, first compound 0.0949 µM) was 76%. The viability, T/C (second compound 3.16 µM, first compound 0.3 µM) was 68.3%, the viability, T/C (second compound 3.16 µM, first compound 0.949 µM) was 62.5% and the viability, T/C (second compound 3.16 µM, first compound 3 µM) was 44.9%. For the same compound, the viability, T/C (second compound 10 µM, first compound 0.00949 µM) was 100%, the viability, T/C (second compound 10 µM, first compound 0.03 µM) was 95% and the viability, T/C (second compound 10 µM, first compound 0.0949 µM) was 73.2%. The viability, T/C (second compound 10 µM, first compound 0.3 µM) was 59.9%, the viability, T/C (second compound 10 µM, first compound 0.949 µM) was 59.6% and the viability, T/C (second compound 10 µM, first compound 3 µM) was 38.3%.
